Test results as given in ChEMBL document CHEMBL1151745, “Identification of potent, selective, and metabolically stable peptide antagonists to the calcitonin gene-related peptide (CGRP) receptor” (J Med Chem, 2008).
Active and inactive are the calls of the source. The calls are words filed in the database; no cut-off is given here. Where a SMILES comes first, the peptide text is derived from it. [ ]: non-standard residue; d: D form. hArg = N=C(N)NCCCC[C@H](N)C(=O)O; Tic = O=C(O)[C@@H]1Cc2ccccc2CN1; Cit = NC(=O)NCCC[C@H](N)C(=O)O

What follows are molecules tested against Calcitonin gene-related peptide type 1 receptor (Homo sapiens) (UniProt Q16602) (assay: Agonist activity at human CGRP1 receptor in human SK-N-MC cells).
Sequence of Calcitonin gene-related peptide type 1 receptor (Homo sapiens) (Q16602 whole entry, looked up): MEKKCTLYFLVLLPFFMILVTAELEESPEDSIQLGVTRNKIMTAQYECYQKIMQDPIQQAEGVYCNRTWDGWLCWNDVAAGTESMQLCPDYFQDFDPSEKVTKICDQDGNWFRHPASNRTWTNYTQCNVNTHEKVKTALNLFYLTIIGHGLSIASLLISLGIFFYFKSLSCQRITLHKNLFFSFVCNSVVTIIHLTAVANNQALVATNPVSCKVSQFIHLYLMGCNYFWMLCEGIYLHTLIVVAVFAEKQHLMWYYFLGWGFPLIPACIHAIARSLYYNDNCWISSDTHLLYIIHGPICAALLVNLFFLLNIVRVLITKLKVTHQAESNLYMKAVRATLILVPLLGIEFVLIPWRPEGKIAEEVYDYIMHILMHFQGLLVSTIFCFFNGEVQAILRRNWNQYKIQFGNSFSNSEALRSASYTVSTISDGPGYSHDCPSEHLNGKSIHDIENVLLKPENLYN

Activity, inactive:
CC(=O)N[C@@H](Cc1c[nH]c2ccccc12)C(=O)N[C@H](C(=O)N[C@H](C(=O)N[C@@H](Cc1cnc[nH]1)C(=O)N[C@@H](CCCNC(N)=O)C(=O)N[C@@H](CC(C)C)C(=O)N[C@@H](C)C(=O)NCC(=O)N[C@@H](CC(C)C)C(=O)N[C@@H](CC(C)C)C(=O)N[C@@H](CO)C(=O)N[C@@H](CCCNC(N)=O)C(=O)N[C@@H](CO)C(=O)NCC(=O)NCC(=O)N[C@H](C(=O)N[C@H](C(=O)N[C@@H](CCCCNC(=N)N)C(=O)N[C@@H](CCCCN)C(=O)N[C@@H](CC(N)=O)C(=O)N[C@@H](Cc1ccccc1)C(=O)N[C@H](C(=O)N1CCC[C@H]1C(=O)N[C@H](C(=O)N[C@@H](CC(=O)O)C(=O)N[C@H](C(=O)NCC(=O)N(C)CC(=O)N[C@@H](Cc1ccccc1)C(=O)N[C@@H](C)C(=O)N[C@@H](Cc1ccccc1)C(N)=O)C(C)C)[C@@H](C)O)C(C)C)C(C)C)C(C)C)[C@@H](C)O)C(C)C
CC(=O)N[C@@H](Cc1c[nH]c2ccccc12)C(=O)N[C@H](C(=O)N[C@H](C(=O)N[C@@H](Cc1cnc[nH]1)C(=O)N[C@@H](CCCNC(N)=O)C(=O)N[C@@H](CC(C)C)C(=O)N[C@@H](C)C(=O)NCC(=O)N[C@@H](CC(C)C)C(=O)N[C@@H](CC(C)C)C(=O)N[C@@H](CO)C(=O)N[C@@H](CCCNC(N)=O)C(=O)N[C@@H](CO)C(=O)NCC(=O)NCC(=O)N[C@H](C(=O)N[C@H](C(=O)N[C@@H](CCCCNC(=N)N)C(=O)N[C@@H](CCCCN)C(=O)N[C@@H](CC(N)=O)C(=O)N[C@@H](Cc1ccccc1)C(=O)N[C@H](C(=O)N1CCC[C@H]1C(=O)N[C@H](C(=O)N[C@@H](CC(=O)O)C(=O)N[C@H](C(=O)NCC(=O)N1CCC[C@H]1C(=O)N1Cc2ccccc2C[C@H]1C(=O)N[C@@H](C)C(=O)N[C@@H](Cc1ccccc1)C(N)=O)C(C)C)[C@@H](C)O)C(C)C)C(C)C)C(C)C)[C@@H](C)O)C(C)C (Ac-WVTH[Cit]LAGLLS[Cit]SGGVV[hArg]KNFVPTDVGP[Tic]AF-NH2)
CC(=O)N[C@@H](Cc1c[nH]c2ccccc12)C(=O)N[C@H](C(=O)N[C@H](C(=O)N[C@@H](Cc1cnc[nH]1)C(=O)N[C@@H](CCCNC(N)=O)C(=O)N[C@@H](CC(C)C)C(=O)N[C@@H](C)C(=O)NCC(=O)N[C@@H](CC(C)C)C(=O)N[C@@H](CC(C)C)C(=O)N[C@@H](CO)C(=O)N[C@@H](CCCNC(=N)N)C(=O)N[C@@H](CO)C(=O)NCC(=O)NCC(=O)N[C@H](C(=O)N[C@H](C(=O)N[C@@H](CCCNC(=N)N)C(=O)N[C@@H](CCCCN)C(=O)N[C@@H](CC(N)=O)C(=O)N[C@@H](Cc1ccccc1)C(=O)N[C@H](C(=O)N1CCC[C@H]1C(=O)N[C@H](C(=O)N[C@@H](CC(=O)O)C(=O)N[C@H](C(=O)NCC(=O)N1CCC[C@H]1C(=O)N[C@@H](Cc1ccccc1)C(=O)N[C@@H](C)C(=O)N[C@@H](Cc1ccccc1)C(N)=O)C(C)C)[C@@H](C)O)C(C)C)C(C)C)C(C)C)[C@@H](C)O)C(C)C
CC(=O)N[C@@H](Cc1c[nH]c2ccccc12)C(=O)N[C@H](C(=O)N[C@H](C(=O)N[C@@H](Cc1cnc[nH]1)C(=O)N[C@@H](CCCNC(N)=O)C(=O)N[C@@H](CC(C)C)C(=O)N[C@@H](C)C(=O)NCC(=O)N[C@@H](CC(C)C)C(=O)N[C@@H](CC(C)C)C(=O)N[C@@H](CO)C(=O)N[C@@H](CCCNC(N)=O)C(=O)N[C@@H](CO)C(=O)NCC(=O)NCC(=O)N[C@H](C(=O)N[C@H](C(=O)N[C@@H](CCCCNC(=N)N)C(=O)N[C@@H](CCCCN)C(=O)N[C@@H](CC(N)=O)C(=O)N[C@@H](Cc1ccccc1)C(=O)N[C@H](C(=O)N1CCC[C@H]1C(=O)N[C@H](C(=O)N[C@@H](CC(=O)O)C(=O)N[C@H](C(=O)NCC(=O)NC1(C(=O)N[C@@H](Cc2ccccc2)C(=O)N[C@@H](C)C(=O)N[C@@H](Cc2ccccc2)C(N)=O)CCNCC1)C(C)C)[C@@H](C)O)C(C)C)C(C)C)C(C)C)[C@@H](C)O)C(C)C
CC(=O)N[C@@H](Cc1c[nH]c2ccccc12)C(=O)N[C@H](C(=O)N[C@H](C(=O)N[C@@H](Cc1cnc[nH]1)C(=O)N[C@@H](CCCNC(N)=O)C(=O)N[C@@H](CC(C)C)C(=O)N[C@@H](C)C(=O)NCC(=O)N[C@@H](CC(C)C)C(=O)N[C@@H](CC(C)C)C(=O)N[C@@H](CO)C(=O)N[C@@H](CCCNC(N)=O)C(=O)N[C@@H](CO)C(=O)NCC(=O)NCC(=O)N[C@H](C(=O)N[C@H](C(=O)N[C@@H](CCCCNC(=N)N)C(=O)N[C@@H](CCCCN)C(=O)N[C@@H](CC(N)=O)C(=O)N[C@@H](Cc1ccccc1)C(=O)N[C@H](C(=O)N1CCC[C@H]1C(=O)N[C@H](C(=O)N[C@@H](CC(=O)O)C(=O)N[C@H](C(=O)NCC(=O)N1CCC[C@@H]1C(=O)N[C@@H](Cc1ccc(-c2ccccc2)cc1)C(=O)N[C@@H](C)C(=O)N[C@@H](Cc1ccccc1)C(N)=O)C(C)C)[C@@H](C)O)C(C)C)C(C)C)C(C)C)[C@@H](C)O)C(C)C
CC(C)C[C@H](NC(=O)CNC(=O)[C@H](C)NC(=O)[C@H](CC(C)C)NC(=O)[C@H](CCCNC(=N)N)NC(=O)[C@H](Cc1cnc[nH]1)NC(=O)[C@@H](NC(=O)[C@@H](NC(=O)[C@@H](N)Cc1c[nH]c2ccccc12)C(C)C)[C@@H](C)O)C(=O)N[C@@H](CC(C)C)C(=O)N[C@@H](CO)C(=O)N[C@@H](CCCNC(=N)N)C(=O)N[C@@H](CO)C(=O)NCC(=O)NCC(=O)N[C@H](C(=O)N[C@H](C(=O)N[C@@H](CCCCN)C(=O)N[C@@H](CC(N)=O)C(=O)N[C@@H](CC(N)=O)C(=O)N[C@@H](Cc1ccccc1)C(=O)N[C@H](C(=O)N1CCC[C@H]1C(=O)N[C@H](C(=O)N[C@@H](CC(N)=O)C(=O)N[C@H](C(=O)NCC(=O)N[C@@H](CO)C(=O)N[C@@H](CCCCN)C(=O)N[C@@H](C)C(=O)N[C@@H](Cc1ccccc1)C(N)=O)C(C)C)[C@@H](C)O)C(C)C)C(C)C)C(C)C
CC(=O)N[C@@H](Cc1c[nH]c2ccccc12)C(=O)N[C@H](C(=O)N[C@H](C(=O)N[C@@H](Cc1cnc[nH]1)C(=O)N[C@@H](CCCNC(N)=O)C(=O)N[C@@H](CC(C)C)C(=O)N[C@@H](C)C(=O)NCC(=O)N[C@@H](CC(C)C)C(=O)N[C@@H](CC(C)C)C(=O)N[C@@H](CO)C(=O)N[C@@H](CCCNC(N)=O)C(=O)N[C@@H](CO)C(=O)NCC(=O)NCC(=O)N[C@H](C(=O)N[C@H](C(=O)N[C@@H](CCCCNC(=N)N)C(=O)N[C@@H](CCCCN)C(=O)N[C@@H](CC(N)=O)C(=O)N[C@@H](Cc1ccc2ccccc2c1)C(=O)N[C@H](C(=O)N1CCC[C@H]1C(=O)N[C@H](C(=O)N[C@@H](CC(=O)O)C(=O)N[C@H](C(=O)NCC(=O)N1C2CCCCC2C[C@H]1C(=O)N[C@@H](Cc1ccccc1)C(=O)N[C@@H](C)C(=O)N[C@@H](Cc1ccc2ccccc2c1)C(N)=O)C(C)C)[C@@H](C)O)C(C)C)C(C)C)C(C)C)[C@@H](C)O)C(C)C (stereo not given in full)
CC(=O)N[C@@H](Cc1c[nH]c2ccccc12)C(=O)N[C@H](C(=O)N[C@H](C(=O)N[C@@H](Cc1cnc[nH]1)C(=O)N[C@@H](CCCNC(N)=O)C(=O)N[C@@H](CC(C)C)C(=O)N[C@@H](C)C(=O)NCC(=O)N[C@@H](CC(C)C)C(=O)N[C@@H](CC(C)C)C(=O)N[C@@H](CO)C(=O)N[C@@H](CCCNC(N)=O)C(=O)N[C@@H](CO)C(=O)NCC(=O)NCC(=O)N[C@H](C(=O)N[C@H](C(=O)N[C@@H](CCCCNC(=N)N)C(=O)N[C@@H](CCCCN)C(=O)N[C@@H](CC(N)=O)C(=O)N[C@@H](Cc1ccccc1)C(=O)N[C@H](C(=O)N1CCC[C@H]1C(=O)N[C@H](C(=O)N[C@@H](CC(=O)O)C(=O)N[C@H](C(=O)NCC(=O)N1CSC[C@H]1C(=O)N[C@@H](Cc1ccccc1)C(=O)N[C@@H](C)C(=O)N[C@@H](Cc1ccccc1)C(N)=O)C(C)C)[C@@H](C)O)C(C)C)C(C)C)C(C)C)[C@@H](C)O)C(C)C
CC(=O)N[C@@H](Cc1c[nH]c2ccccc12)C(=O)N[C@H](C(=O)N[C@H]1CCC(=O)NCCCC[C@@H](C(=O)NCC(=O)N[C@@H](CC(C)C)C(=O)N[C@@H](CC(C)C)C(=O)N[C@@H](CO)C(=O)N[C@@H](CCCNC(=N)N)C(=O)N[C@@H](CO)C(=O)NCC(=O)NCC(=O)N[C@H](C(=O)N[C@H](C(=O)N[C@@H](CCCNC(=N)N)C(=O)N[C@@H](CCCCN)C(=O)N[C@@H](CC(N)=O)C(=O)N[C@@H](Cc2ccccc2)C(=O)N[C@H](C(=O)N2CCC[C@H]2C(=O)N[C@H](C(=O)N[C@@H](CC(=O)O)C(=O)N[C@H](C(=O)NCC(=O)N2CCC[C@H]2C(=O)N[C@@H](Cc2ccccc2)C(=O)N[C@@H](C)C(=O)N[C@@H](Cc2ccccc2)C(N)=O)C(C)C)[C@@H](C)O)C(C)C)C(C)C)C(C)C)NC(=O)[C@H](CC(C)C)NC(=O)[C@H](CCCNC(=N)N)NC(=O)[C@H](Cc2cnc[nH]2)NC1=O)C(C)C
CC(=O)N[C@@H](Cc1c[nH]c2ccccc12)C(=O)N[C@H](C(=O)N[C@H]1CCC(=O)NCCCC[C@@H](C(=O)NCC(=O)N[C@H]2CCC(=O)NCCCC[C@@H](C(=O)NCC(=O)NCC(=O)N[C@H](C(=O)N[C@H](C(=O)N[C@@H](CCCCNC(=N)N)C(=O)N[C@@H](CCCCN)C(=O)N[C@@H](CC(N)=O)C(=O)N[C@@H](Cc3ccccc3)C(=O)N[C@H](C(=O)N3CCC[C@H]3C(=O)N[C@H](C(=O)N[C@@H](CC(=O)O)C(=O)N[C@H](C(=O)NCC(=O)N3CCC[C@H]3C(=O)N[C@@H](Cc3ccccc3)C(=O)N[C@@H](C)C(=O)N[C@@H](Cc3ccccc3)C(N)=O)C(C)C)[C@@H](C)O)C(C)C)C(C)C)C(C)C)NC(=O)[C@H](CCCNC(=N)N)NC(=O)[C@H](CO)NC(=O)[C@H](CC(C)C)NC2=O)NC(=O)[C@H](CC(C)C)NC(=O)[C@H](CCCNC(=N)N)NC(=O)[C@H](Cc2cnc[nH]2)NC1=O)C(C)C
